Experimental data taken from ChEMBL document CHEMBL5108011, “Design, synthesis and antitumor evaluation of ATP dual-mimic 2,4-diarylaminopyrimidine and aminoindazole conjugates as potent anaplastic lymphoma kinase inhibitors” (Eur J Med Chem, 2022).

Legend:
[1] = target: ALK tyrosine kinase receptor (Homo sapiens, UniProt Q9UM73, L1196M); experiment: Inhibition of ALK L1196M mutant (unknown origin) incubated for 1 hr and measured by mobility shift assay
[2] = target: ALK tyrosine kinase receptor (Homo sapiens, UniProt Q9UM73); experiment: Inhibition of ALK (unknown origin) incubated for 1 hr and measured by mobility shift assay
ALK tyrosine kinase receptor (Homo sapiens, UniProt Q9UM73), sequence (Q9UM73 whole entry): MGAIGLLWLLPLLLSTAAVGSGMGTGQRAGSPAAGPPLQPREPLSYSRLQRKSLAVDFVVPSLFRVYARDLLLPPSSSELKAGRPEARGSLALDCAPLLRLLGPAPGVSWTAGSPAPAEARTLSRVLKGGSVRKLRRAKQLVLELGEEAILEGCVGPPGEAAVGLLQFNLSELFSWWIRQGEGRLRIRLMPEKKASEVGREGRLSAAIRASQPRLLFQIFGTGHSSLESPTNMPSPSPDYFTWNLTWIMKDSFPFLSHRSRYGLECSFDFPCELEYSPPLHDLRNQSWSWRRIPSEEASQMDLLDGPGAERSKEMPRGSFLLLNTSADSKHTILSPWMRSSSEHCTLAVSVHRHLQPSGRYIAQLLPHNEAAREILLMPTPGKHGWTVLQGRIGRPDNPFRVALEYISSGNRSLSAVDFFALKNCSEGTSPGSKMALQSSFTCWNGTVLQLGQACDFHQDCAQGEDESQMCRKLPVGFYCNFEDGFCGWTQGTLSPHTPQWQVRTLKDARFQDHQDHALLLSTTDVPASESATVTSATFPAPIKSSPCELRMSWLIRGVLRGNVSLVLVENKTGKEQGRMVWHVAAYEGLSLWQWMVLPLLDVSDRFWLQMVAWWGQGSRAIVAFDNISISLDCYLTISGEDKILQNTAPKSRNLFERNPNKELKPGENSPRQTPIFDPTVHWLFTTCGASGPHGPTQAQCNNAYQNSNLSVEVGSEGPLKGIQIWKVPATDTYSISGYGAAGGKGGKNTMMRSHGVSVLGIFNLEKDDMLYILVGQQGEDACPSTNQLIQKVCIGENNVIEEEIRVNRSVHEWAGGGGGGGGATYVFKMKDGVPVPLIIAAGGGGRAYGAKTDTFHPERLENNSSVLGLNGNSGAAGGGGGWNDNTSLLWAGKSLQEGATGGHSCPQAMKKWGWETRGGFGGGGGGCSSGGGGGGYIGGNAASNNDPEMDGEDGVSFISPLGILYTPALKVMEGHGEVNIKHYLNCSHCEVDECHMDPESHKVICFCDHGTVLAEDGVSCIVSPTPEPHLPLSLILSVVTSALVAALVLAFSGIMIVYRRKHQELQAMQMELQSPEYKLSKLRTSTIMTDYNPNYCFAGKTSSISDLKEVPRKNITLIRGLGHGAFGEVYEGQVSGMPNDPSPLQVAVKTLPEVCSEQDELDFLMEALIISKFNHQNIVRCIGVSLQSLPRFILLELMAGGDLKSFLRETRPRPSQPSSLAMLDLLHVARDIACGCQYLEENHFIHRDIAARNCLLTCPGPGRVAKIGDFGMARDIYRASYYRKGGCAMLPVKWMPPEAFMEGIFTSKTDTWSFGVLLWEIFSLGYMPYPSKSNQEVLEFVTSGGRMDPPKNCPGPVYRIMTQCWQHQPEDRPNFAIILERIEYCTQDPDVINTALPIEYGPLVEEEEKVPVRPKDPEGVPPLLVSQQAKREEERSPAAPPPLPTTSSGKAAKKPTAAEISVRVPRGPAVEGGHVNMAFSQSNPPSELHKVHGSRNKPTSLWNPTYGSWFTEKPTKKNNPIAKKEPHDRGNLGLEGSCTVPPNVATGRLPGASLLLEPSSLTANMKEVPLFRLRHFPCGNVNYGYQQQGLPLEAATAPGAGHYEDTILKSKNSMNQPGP

[3] = target: ALK tyrosine kinase receptor (Homo sapiens, UniProt Q9UM73, G1202R); experiment: Inhibition of ALK G1202R mutant (unknown origin) incubated for 1 hr and measured by mobility shift assay
ALK tyrosine kinase receptor (Homo sapiens, UniProt Q9UM73, G1202R), sequence (Q9UM73 19-1620 G1202R limits assumed): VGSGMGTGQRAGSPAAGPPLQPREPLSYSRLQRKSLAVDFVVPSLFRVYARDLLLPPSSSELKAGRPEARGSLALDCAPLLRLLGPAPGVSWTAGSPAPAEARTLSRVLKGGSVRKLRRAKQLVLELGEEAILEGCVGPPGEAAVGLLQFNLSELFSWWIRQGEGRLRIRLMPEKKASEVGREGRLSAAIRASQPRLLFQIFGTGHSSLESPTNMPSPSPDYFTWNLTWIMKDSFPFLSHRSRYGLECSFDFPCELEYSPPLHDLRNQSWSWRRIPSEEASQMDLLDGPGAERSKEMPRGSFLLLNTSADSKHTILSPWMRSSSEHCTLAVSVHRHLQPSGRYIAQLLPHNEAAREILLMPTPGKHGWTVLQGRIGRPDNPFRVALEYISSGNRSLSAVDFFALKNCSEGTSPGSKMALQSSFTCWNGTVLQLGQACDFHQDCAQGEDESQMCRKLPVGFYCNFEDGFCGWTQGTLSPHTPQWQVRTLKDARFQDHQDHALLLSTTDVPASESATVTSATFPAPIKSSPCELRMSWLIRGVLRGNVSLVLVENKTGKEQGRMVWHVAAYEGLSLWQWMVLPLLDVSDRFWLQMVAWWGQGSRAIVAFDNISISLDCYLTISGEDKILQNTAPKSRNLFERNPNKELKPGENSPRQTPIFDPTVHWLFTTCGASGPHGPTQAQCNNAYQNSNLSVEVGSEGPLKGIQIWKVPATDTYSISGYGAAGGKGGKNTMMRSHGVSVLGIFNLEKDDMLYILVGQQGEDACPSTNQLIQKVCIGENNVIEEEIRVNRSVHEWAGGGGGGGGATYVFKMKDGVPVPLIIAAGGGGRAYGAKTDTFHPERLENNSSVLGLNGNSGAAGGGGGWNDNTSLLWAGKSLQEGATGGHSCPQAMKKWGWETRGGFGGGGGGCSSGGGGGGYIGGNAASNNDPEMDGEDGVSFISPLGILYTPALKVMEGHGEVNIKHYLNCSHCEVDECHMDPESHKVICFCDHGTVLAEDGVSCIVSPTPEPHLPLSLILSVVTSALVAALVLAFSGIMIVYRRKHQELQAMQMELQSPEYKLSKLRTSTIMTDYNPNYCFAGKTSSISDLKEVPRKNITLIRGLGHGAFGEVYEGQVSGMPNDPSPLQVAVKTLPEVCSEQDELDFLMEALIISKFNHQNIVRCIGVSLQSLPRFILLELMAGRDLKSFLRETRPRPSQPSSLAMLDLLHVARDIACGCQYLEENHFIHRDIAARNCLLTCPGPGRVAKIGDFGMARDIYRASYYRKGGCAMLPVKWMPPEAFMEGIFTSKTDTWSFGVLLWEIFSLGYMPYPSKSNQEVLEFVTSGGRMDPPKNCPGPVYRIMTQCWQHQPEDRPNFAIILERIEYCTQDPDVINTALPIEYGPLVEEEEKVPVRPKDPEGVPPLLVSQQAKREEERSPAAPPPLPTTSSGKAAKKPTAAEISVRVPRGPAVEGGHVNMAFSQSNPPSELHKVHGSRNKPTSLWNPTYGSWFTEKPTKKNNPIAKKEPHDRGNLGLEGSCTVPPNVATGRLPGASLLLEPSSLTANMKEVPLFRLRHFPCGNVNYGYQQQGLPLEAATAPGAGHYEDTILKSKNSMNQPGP

[4] = system: NCI-H3122; experiment: cells; details: Homo sapiens, NCI-H3122, 72 h
Description: Antiproliferative activity against EML4-ALK-positive human NCI-H3122 cells incubated for 72 hrs and measured by CCK-8 assay

[5] = system: A549; experiment: cells; details: Homo sapiens, A549, 72 h
Description: Antiproliferative activity against EGFR-positive human A549 cells incubated for 72 hrs and measured by CCK-8 assay

[6] = system: KARPAS-299; experiment: cells; details: Homo sapiens, KARPAS-299, 72 h
Description: Antiproliferative activity against NPM-ALK-positive human KARPAS-299 cells incubated for 72 hrs and measured by CCK-8 assay

[7] = system: NCI-H2228; experiment: cells; details: Homo sapiens, NCI-H2228, 72 h
Description: Antiproliferative activity against EML4-ALK-positive human NCI-H2228 cells incubated for 72 hrs and measured by CCK-8 assay

[8] = target: Epidermal growth factor receptor (Homo sapiens, UniProt P00533); experiment: Inhibition of EGFR (unknown origin) incubated for 1 hr and measured by mobility shift assay
Epidermal growth factor receptor, sequence (P00533 whole entry): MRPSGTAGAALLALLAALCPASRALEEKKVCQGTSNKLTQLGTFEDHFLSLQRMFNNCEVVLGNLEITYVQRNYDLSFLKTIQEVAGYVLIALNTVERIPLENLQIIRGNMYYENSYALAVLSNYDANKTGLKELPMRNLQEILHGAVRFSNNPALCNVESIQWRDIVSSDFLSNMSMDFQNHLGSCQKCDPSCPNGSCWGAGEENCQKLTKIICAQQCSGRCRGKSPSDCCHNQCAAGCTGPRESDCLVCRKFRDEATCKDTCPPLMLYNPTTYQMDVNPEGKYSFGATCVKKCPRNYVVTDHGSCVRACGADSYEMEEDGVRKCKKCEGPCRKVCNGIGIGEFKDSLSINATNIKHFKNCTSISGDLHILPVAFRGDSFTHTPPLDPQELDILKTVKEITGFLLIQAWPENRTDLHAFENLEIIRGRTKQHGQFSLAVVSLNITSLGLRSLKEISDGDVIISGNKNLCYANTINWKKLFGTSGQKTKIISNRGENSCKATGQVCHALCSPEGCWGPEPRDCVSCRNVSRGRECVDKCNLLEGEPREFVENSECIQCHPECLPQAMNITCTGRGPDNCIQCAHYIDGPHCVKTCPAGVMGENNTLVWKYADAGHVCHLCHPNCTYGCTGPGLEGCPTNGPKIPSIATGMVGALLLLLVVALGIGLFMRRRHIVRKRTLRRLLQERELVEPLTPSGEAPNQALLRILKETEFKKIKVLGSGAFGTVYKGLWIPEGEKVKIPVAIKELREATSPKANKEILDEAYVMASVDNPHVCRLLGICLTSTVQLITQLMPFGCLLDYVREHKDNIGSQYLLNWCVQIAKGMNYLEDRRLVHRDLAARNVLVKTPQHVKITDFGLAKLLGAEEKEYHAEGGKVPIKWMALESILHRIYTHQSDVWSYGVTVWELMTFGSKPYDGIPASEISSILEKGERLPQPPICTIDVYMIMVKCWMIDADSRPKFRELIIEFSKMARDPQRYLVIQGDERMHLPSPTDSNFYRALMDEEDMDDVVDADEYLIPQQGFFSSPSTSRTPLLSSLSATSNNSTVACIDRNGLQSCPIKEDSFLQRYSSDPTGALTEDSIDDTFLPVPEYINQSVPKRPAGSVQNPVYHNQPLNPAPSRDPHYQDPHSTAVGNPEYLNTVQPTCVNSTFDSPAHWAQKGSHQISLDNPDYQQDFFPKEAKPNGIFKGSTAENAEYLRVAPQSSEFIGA

[9] = system: NCI-H1581; experiment: Antiproliferative activity against human NCI-H1581 cells incubated for 72 hrs and measured by CCK-8 assay; assay type: functional, cell-based; details: NCI-H1581, 72 h
[10] = system: NCI-H2228; experiment: Induction of apoptosis in EML4-ALK-positive human NCI-H2228 cells assessed as apoptotic rate at 100 nM measured after 48 hrs by annexin V-FITC/propidium iodide staining based flow cytometry (reference value: 6.6%); assay type: functional
[11] = system: MCF7; experiment: Antiproliferative activity against human MCF7 cells incubated for 72 hrs and measured by CCK-8 assay; assay type: functional, cell-based; details: MCF7, 72 h
[12] = Cytotoxicity against human HELF cells incubated for 72 hrs and measured by CCK-8 assay; assay type: toxicity, cell-based
[13] = system: HCT-116; experiment: Antiproliferative activity against human HCT-116 cells incubated for 72 hrs and measured by CCK-8 assay; assay type: functional, cell-based; details: HCT-116, 72 h
[14] = system: PC-3; experiment: Antiproliferative activity against human PC-3 cells incubated for 72 hrs and measured by CCK-8 assay; assay type: functional, cell-based; details: PC-3, 72 h

ALK tyrosine kinase receptor (Homo sapiens, UniProt Q9UM73, L1196M), sequence (Q9UM73 19-1620 L1196M limits assumed): as the sequence (Q9UM73 19-1620 G1202R limits assumed) above, with L1178M, R1184G counted along it

With `CC(C)S(=O)(=O)c1ccccc1Nc1nc(Nc2ccc3c(NC(=O)CN(C)C)n[nH]c3c2)ncc1Cl` the IC50 [1] was 4.8 nM, the IC50 [2] was 2.5 nM and the IC50 [3] was 3.8 nM.

With `CC(C)S(=O)(=O)c1ccccc1Nc1nc(Nc2ccc3c(NC(=O)CN4CCSCC4)n[nH]c3c2)ncc1Cl` the IC50 [4] was 124 nM, the IC50 [5] was 1180 nM and the IC50 [6] was 36 nM. It also gave an IC50 [7] of 126 nM.

For `CNC(=O)c1ccccc1Nc1nc(Nc2ccc3c(NC(=O)CN4CCOCC4)n[nH]c3c2)ncc1Cl`, the IC50 [4] was 97 nM, the IC50 [5] was 2230 nM and the IC50 [6] was 23 nM. For the same molecule, the IC50 [7] was 112 nM.

With `CC(C)S(=O)(=O)c1ccccc1Nc1nc(Nc2ccc3c(NC(=O)CN4CCC(O)CC4)n[nH]c3c2)ncc1Cl` the IC50 [4] was 129 nM, the IC50 [5] was 1840 nM and the IC50 [6] was 41 nM. The IC50 [7] was 170 nM.

Work on `CCN1CCN(CC(=O)Nc2n[nH]c3cc(Nc4ncc(Cl)c(Nc5ccccc5C(=O)NC)n4)ccc23)CC1` yielded an IC50 [4] of 162 nM, an IC50 [5] of 4470 nM and an IC50 [6] of 21 nM. It also gave an IC50 [7] of 242 nM.

Molecule `CC(C)S(=O)(=O)c1ccccc1Nc1nc(Nc2ccc3c(NC(=O)CN4CCCCC4)n[nH]c3c2)ncc1Cl` has an IC50 [4] of 83 nM, an IC50 [5] of 3260 nM and an IC50 [6] of 19 nM. The IC50 [7] was 133 nM.

For `CNC(=O)c1ccccc1Nc1nc(Nc2ccc3c(NC(=O)CN(C)C)n[nH]c3c2)ncc1Cl`, the IC50 [4] was 21 nM, the IC50 [8] was > 1000 nM and the IC50 [5] was 2190 nM. The IC50 [1] was 6.6 nM, the IC50 [6] was 12 nM and the IC50 [2] was 3.7 nM. For the same molecule, the IC50 [7] was 51 nM and the IC50 [3] was 2.5 nM.

With `Cc1cc(Nc2ncc(Cl)c(Nc3ccccc3S(=O)(=O)C(C)C)n2)c(OC(C)C)cc1C1CCNCC1` [CERITINIB] the IC50 [4] was 43 nM, the IC50 [9] was 2310 nM and the Activity [10] was 12.32%. For the same molecule, the IC50 [11] was 1870 nM, the IC50 [5] was 2770 nM and the IC50 at 72 h [12] was > 20000 nM. The IC50 [13] was 1930 nM, the IC50 [14] was 1020 nM and the IC50 [6] was 24 nM. The IC50 [7] was 66 nM.

In the case of `CCN(CC)CC(=O)Nc1n[nH]c2cc(Nc3ncc(Cl)c(Nc4ccccc4S(=O)(=O)C(C)C)n3)ccc12`, the IC50 [4] is reported as 57 nM, the IC50 [8] is reported as > 1000 nM and the IC50 [5] is reported as 2560 nM. The IC50 [1] was 3.8 nM, the IC50 [6] was 21 nM and the IC50 [2] was 3.3 nM. The IC50 [7] was 45 nM and the IC50 [3] was 1.8 nM.

`C=CC(=O)Nc1ccccc1Nc1nc(Nc2ccc3c(NC(=O)CN(C)C)n[nH]c3c2)ncc1Cl` gave an IC50 [4] of 3490 nM, an IC50 [5] of 4490 nM and an IC50 [6] of 899 nM. For the same molecule, the IC50 [7] was 1820 nM.

Work on `CN(C)CC(=O)Nc1n[nH]c2cc(Nc3ncc(Cl)c(Nc4ccccc4NS(C)(=O)=O)n3)ccc12` yielded an IC50 [4] of 245 nM, an IC50 [5] of 3440 nM and an IC50 [6] of 132 nM. It also gave an IC50 [7] of 339 nM.

In the case of `CC(=O)Nc1ccccc1Nc1nc(Nc2ccc3c(NC(=O)CN(C)C)n[nH]c3c2)ncc1Cl`, the IC50 [4] is reported as 74 nM, the IC50 [5] is reported as 1670 nM and the IC50 [6] is reported as 359 nM. For the same molecule, the IC50 [7] was 770 nM.

Molecule `CNC(=O)c1ccccc1Nc1nc(Nc2ccc3c(NC(=O)CN4CCCC4)n[nH]c3c2)ncc1Cl` has an IC50 [1] of 4.4 nM, an IC50 [2] of 3.6 nM and an IC50 [3] of 2.1 nM.

`CN(C)CC(=O)Nc1n[nH]c2cc(Nc3ncc(Cl)c(Nc4ccccc4NC(=O)C4CC4)n3)ccc12` showed an IC50 [4] of 836 nM, an IC50 [5] of 1320 nM and an IC50 [6] of 558 nM. It also gave an IC50 [7] of 823 nM.

Molecule `CN(C)CC(=O)Nc1n[nH]c2cc(Nc3ncc(Cl)c(Nc4ccccc4NC(=O)C(C)(C)C)n3)ccc12` has an IC50 [4] of 1570 nM, an IC50 [5] of 1690 nM and an IC50 [6] of 718 nM. It also gave an IC50 [7] of 912 nM.

`CNC(=O)c1ccccc1Nc1nc(Nc2ccc3c(NC(=O)CN4CCC(C)CC4)n[nH]c3c2)ncc1Cl` showed an IC50 [4] of 71 nM, an IC50 [5] of 4810 nM and an IC50 [6] of 29 nM. The IC50 [7] was 113 nM.

`C/C=C/C(=O)Nc1ccccc1Nc1nc(Nc2ccc3c(NC(=O)CN(C)C)n[nH]c3c2)ncc1Cl` gave an IC50 [4] of 3690 nM, an IC50 [5] of 5910 nM and an IC50 [6] of 1250 nM. For the same molecule, the IC50 [7] was 2980 nM.

With `CNC(=O)c1ccccc1Nc1nc(Nc2ccc3c(NC(=O)CN4CCN(CCO)CC4)n[nH]c3c2)ncc1Cl` the IC50 [4] was 175 nM, the IC50 [5] was 13600 nM and the IC50 [6] was 53 nM. It also gave an IC50 [7] of 412 nM.

For `CC(C)S(=O)(=O)c1ccccc1Nc1nc(Nc2ccc3c(NC(=O)CN4CCN(CCO)CC4)n[nH]c3c2)ncc1Cl`, the IC50 [4] was 157 nM, the IC50 [5] was 7260 nM and the IC50 [6] was 46 nM. For the same molecule, the IC50 [7] was 250 nM.

For `CNC(=O)c1ccccc1Nc1nc(Nc2ccc3c(NC(=O)CN4CCC(O)CC4)n[nH]c3c2)ncc1Cl`, the IC50 [4] was 151 nM, the IC50 [5] was 2000 nM and the IC50 [6] was 59 nM. For the same molecule, the IC50 [7] was 362 nM.

`CNC(=O)c1ccccc1Nc1nc(Nc2ccc3c(NC(=O)CN4CCC(=O)CC4)n[nH]c3c2)ncc1Cl` showed an IC50 [4] of 187 nM, an IC50 [5] of 2030 nM and an IC50 [6] of 63 nM. For the same molecule, the IC50 [7] was 569 nM.

With `CNC(=O)c1ccccc1Nc1nc(Nc2ccc3c(NC(=O)CN4CCCCC4)n[nH]c3c2)ncc1Cl` the IC50 [4] was 107 nM, the IC50 [5] was 7210 nM and the IC50 [6] was 31 nM. For the same molecule, the IC50 [7] was 204 nM.

Work on `CN(C)CC(=O)Nc1n[nH]c2cc(Nc3ncc(Cl)c(Nc4ccccc4NS(=O)(=O)C4CC4)n3)ccc12` yielded an IC50 [4] of 1530 nM, an IC50 [5] of 1850 nM and an IC50 [6] of 169 nM. For the same molecule, the IC50 [7] was 781 nM.

In the case of `CCN1CCN(CC(=O)Nc2n[nH]c3cc(Nc4ncc(Cl)c(Nc5ccccc5S(=O)(=O)C(C)C)n4)ccc23)CC1`, the IC50 [4] is reported as 84 nM, the IC50 [5] is reported as 3970 nM and the IC50 [6] is reported as 26 nM. The IC50 [7] was 140 nM.

Work on `CC(C)S(=O)(=O)c1ccccc1Nc1nc(Nc2ccc3c(NC(=O)CN4CCOCC4)n[nH]c3c2)ncc1Cl` yielded an IC50 [4] of 73 nM, an IC50 [5] of 2390 nM and an IC50 [6] of 22 nM. For the same molecule, the IC50 [7] was 124 nM.

For `CN(C)CC(=O)Nc1n[nH]c2cc(Nc3ncc(Cl)c(Nc4ccccc4NC(=O)C(Cl)(Cl)Cl)n3)ccc12`, the IC50 [4] was 2960 nM, the IC50 [5] was 5780 nM and the IC50 [6] was 1270 nM. The IC50 [7] was 1450 nM.

Work on `CCN(CC)CC(=O)Nc1n[nH]c2cc(Nc3ncc(Cl)c(Nc4ccccc4C(=O)NC)n3)ccc12` yielded an IC50 [4] of 85 nM, an IC50 [5] of 2350 nM and an IC50 [6] of 17 nM. For the same molecule, the IC50 [7] was 62 nM.

For `CC1CCN(CC(=O)Nc2n[nH]c3cc(Nc4ncc(Cl)c(Nc5ccccc5S(=O)(=O)C(C)C)n4)ccc23)CC1`, the IC50 [4] was 65 nM, the IC50 [5] was 1470 nM and the IC50 [6] was 16 nM. The IC50 [7] was 104 nM.

`CNC(=O)c1ccccc1Nc1nc(Nc2ccc3c(NC(=O)CN4CCSCC4)n[nH]c3c2)ncc1Cl` showed an IC50 [4] of 137 nM, an IC50 [5] of 1220 nM and an IC50 [6] of 76 nM. It also gave an IC50 [7] of 322 nM.

With `CC(C)S(=O)(=O)c1ccccc1Nc1nc(Nc2ccc3c(NC(=O)CN4CCN(C)CC4)n[nH]c3c2)ncc1Cl` the IC50 [4] was 89 nM, the IC50 [5] was 3580 nM and the IC50 [6] was 34 nM. For the same molecule, the IC50 [7] was 520 nM.
